Source: PubChem BioAssay (NCI)
Where “and” joins values, the source holds several entries; their conditions need not be identical. Equal entries are not always repeated.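 Five concentrations, 48 hours, 96-well plates. GI50 marks 50% less growth. Definition used: TGI = concentration required for complete inhibition of growth.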

Assays:
Test in all cases: growth of human tumour cells (NCI), 48 h
ACHN renal = tested on: ACHN renal
NCI-H522 lung = tested on: NCI-H522 lung
OVCAR-8 ovarian = tested on: OVCAR-8 ovarian
HOP-92 NSCLC = tested on: HOP-92 NSCLC
A498 renal = tested on: A498 renal
MDA-MB-435 = tested on: MDA-MB-435
UACC-257 melanoma = tested on: UACC-257 melanoma
RPMI-8226 leukemia = tested on: RPMI-8226 leukemia
KM12 colon = tested on: KM12 colon
HCC-2998 colon = tested on: HCC-2998 colon

Compound | GI50 (ACHN renal) | TGI (ACHN renal) | GI50 (NCI-H522 lung) | TGI (NCI-H522 lung) | GI50 (OVCAR-8 ovarian) | TGI (OVCAR-8 ovarian) | GI50 (HOP-92 NSCLC) | TGI (HOP-92 NSCLC) | GI50 (A498 renal) | TGI (A498 renal) | GI50 (MDA-MB-435) | TGI (MDA-MB-435) | GI50 (UACC-257 melanoma) | TGI (UACC-257 melanoma) | GI50 (RPMI-8226 leukemia) | TGI (RPMI-8226 leukemia) | GI50 (KM12 colon) | TGI (KM12 colon) | GI50 (HCC-2998 colon) | TGI (HCC-2998 colon)
O=C1NC(=N[C@H](CO)c2ccccc2)S/C1=C\c1ccc2ncccc2c1 | 4.91 µM | > 24 µM | 1.54 µM | 6.31 µM | 5.27 µM | > 25 µM | 4.59 µM | 18.7 µM | 2.07 µM | 7.13 µM | 5.37 µM | > 25 µM | 6.39 µM | 19.2 µM | 3.73 µM | 10.9 µM | 5.77 µM | > 21.4 µM | 7.96 µM | > 25 µM
C[C@H](c1ccccc1)N(CCC(=O)O)C(=O)CCN(C(=O)CCN(C(=O)CCN[C@H](C)c1ccccc1)[C@H](C)c1ccccc1)[C@H](C)c1ccccc1 | > 100 µM | > 100 µM | > 100 µM | > 100 µM | > 100 µM | > 100 µM | 92 µM | > 100 µM | > 100 µM | > 100 µM | > 100 µM | > 100 µM | > 100 µM | > 100 µM | 58.4 µM | > 100 µM | > 100 µM | > 100 µM | > 100 µM | > 100 µM
Cc1cc(N)cc(C)c1-c1c(Br)cc(N)cc1Br | 10.6 µM | 98.4 µM | 2.19 µM | 7.88 µM | 4.41 µM | 28.6 µM | 2.01 µM | 9.32 µM | 1.82 µM | 7.54 µM | 1.78 µM | 11.2 µM | 14.3 µM | 51.8 µM | 3.04 µM | 10.4 µM | 3.75 µM | 17.3 µM | 3.42 µM | 16.6 µM
CCCc1n(Cc2ccc3ccccc3n2)cc[n+]1Cc1ccc2ccccc2n1 | 33.4 µM | > 100 µM | 0.438 µM | 5.07 µM | 3.16 µM | 12.3 µM | 0.56 µM | 4.18 µM | 7.21 µM | 35 µM | 1.13 µM | 11.9 µM | 0.778 µM | 4.84 µM | 0.362 µM | 7.41 µM | 0.991 µM | 11.9 µM | 0.985 µM | 14.8 µM
COc1ccc2nc3cc(Cl)ccc3c(Nc3cc(C(C)C)c(O)cc3C)c2c1 | 2.22 µM | 5.08 µM | 1.79 µM | 3.65 µM | 2.06 µM | 4.47 µM | 1.16 µM | 3.11 µM | 2.05 µM | 6.58 µM | 1.8 µM | 4.48 µM | 1.35 µM | 3.07 µM | 0.663 µM | 2.68 µM | 2.2 µM | 4.67 µM | 2.22 µM | 5.58 µM
COC(=O)c1ccc2c(C(=Nc3ccc(N(C)C(=O)CN4CCN(C)CC4)cc3)c3ccccc3)c(O)[nH]c2c1 | 1.58 µM and 2.51 µM | – | 1.5 µM and 1.75 µM | 3.67 µM and 5.77 µM | 2.31 µM and 2.43 µM | 27.6 µM and > 100 µM | 0.69 µM and 1.56 µM | 12.7 µM and 15 µM | 0.613 µM and 0.604 µM | 5.52 µM and 10.1 µM | 1.63 µM and 1.6 µM | 3.09 µM and 3.05 µM | 1.83 µM and 1.54 µM | 4.48 µM and 3.1 µM | 2.73 µM and 5.97 µM | 9.86 µM and 20.8 µM | 0.066 µM and 0.073 µM | 2.05 µM and 1.98 µM | 11.2 µM and 7.26 µM | 30.7 µM and 73.8 µM
CCc1ccc([O-])c(C=NCCCN(C)CCCN=Cc2cc(C)ccc2[O-])c1.[Co+3].[N-]=[N+]=[N-] | 50 µg/mL | 50 µg/mL | 50 µg/mL and > 150 µg/mL | 50 µg/mL and > 150 µg/mL | 31.9 µg/mL and 49.1 µg/mL | 50 µg/mL and > 150 µg/mL | 15.9 µg/mL and 22 µg/mL | 50 µg/mL and 54.7 µg/mL | 50 µg/mL and 79.7 µg/mL | 50 µg/mL and 127 µg/mL | 50 µg/mL | 50 µg/mL | 50 µg/mL and > 150 µg/mL | 50 µg/mL and > 150 µg/mL | 50 µg/mL and 73.5 µg/mL | 50 µg/mL and > 150 µg/mL | 50 µg/mL and > 150 µg/mL | 50 µg/mL and > 150 µg/mL | 50 µg/mL and 123 µg/mL | 50 µg/mL and > 150 µg/mL
N#Cc1c(N)c(C#N)c2c(c1-c1ccc(Cl)cc1)COc1ccc(F)cc1-2 | 19.7 µM | > 50 µM | 2.75 µM | 14.5 µM | > 50 µM | > 50 µM | > 50 µM | > 50 µM | 7.89 µM | 28 µM | > 50 µM | > 50 µM | > 50 µM | > 50 µM | 19 µM | > 50 µM | 12.3 µM | > 50 µM | – | –
c1cc2c(c(NC3=NCCN3)c1)CCCC2 | – | > 100 µM | – | > 100 µM | – | > 100 µM | – | > 100 µM | – | > 100 µM | – | > 100 µM | – | > 100 µM | – | > 100 µM | – | > 100 µM | – | –
Cc1ccc(S(=O)(=O)CC2(Br)CCc3ccccc3C2=O)cc1 (stereo not drawn) | – | 38.2 µM | – | 32.7 µM | – | 64.8 µM | – | > 100 µM | – | 95 µM | – | 40.3 µM | – | 44.1 µM | – | > 100 µM | – | > 100 µM | – | –
COc1ccc2c(c1)N(CCO)C1=C(C(=O)OC1)C2c1ccc(OC)c(OC)c1 (stereo not drawn) | 6.3 µM | > 100 µM | 1.48 µM | 5.25 µM | 3.34 µM | > 100 µM | – | – | 1.56 µM | 5.93 µM | 0.407 µM | 2.13 µM | 3.38 µM | > 100 µM | 3.78 µM | > 100 µM | 1.43 µM | 14.7 µM | 2.61 µM | > 100 µM
CC12CC(=O)C3C(CCC4=CC(=O)CCC43C)C1CC=C2CC(=O)O (stereo not drawn) | – | > 100 µM | – | > 100 µM | – | > 100 µM | – | > 100 µM | – | > 100 µM | – | > 100 µM | – | > 100 µM | – | > 100 µM | – | > 100 µM | – | –
Cn1cc(C2=C(c3c(S(C)=O)n(C)c4ccccc34)C(=O)NC2=O)c2ccccc21 (stereo not drawn) | 8.83 µM | > 25 µM | 4.47 µM | > 23.4 µM | 12.3 µM | > 25 µM | – | – | 4.03 µM | > 20.5 µM | 2.68 µM | 9.14 µM | > 25 µM | > 25 µM | 12.7 µM | > 25 µM | 7.9 µM | > 25 µM | 18.9 µM | > 25 µM
N=C1C(c2nc3ccccc3s2)=C(O)CN1c1cc(Cl)cc(Cl)c1 | > 100 µM | > 100 µM | – | – | > 100 µM | > 100 µM | 59.3 µM | > 100 µM | > 100 µM | > 100 µM | > 100 µM | > 100 µM | 40.2 µM | > 100 µM | > 100 µM | > 100 µM | > 100 µM | > 100 µM | > 100 µM | > 100 µM
